According to the NIST ThermoML archive (doi:10.1016/j.jct.2008.12.004):
± gives the expanded uncertainty stated by the source.

Experiment: excess molar enthalpy (molar enthalpy of mixing); xn = mol fraction of the nth substance listed
Conditions: 101 kPa, Liquid, Flow calorimetry

C1CCCCC1 [cyclohexane] + Cc1ccccc1
excess molar enthalpy [kJ/mol]
Conditions | 298.15 K | 313.15 K
x1 = 0.0491 | – | 0.104 ± 0.0018
x1 = 0.0492 | 0.11 ± 0.0019 | –
x1 = 0.1003 | – | 0.202 ± 0.003
x1 = 0.1004 | 0.213 ± 0.0031 | –
x1 = 0.1496 | – | 0.287 ± 0.004
x1 = 0.1497 | 0.304 ± 0.0042 | –
x1 = 0.199 | – | 0.36 ± 0.0049
x1 = 0.1991 | 0.381 ± 0.0051 | –
x1 = 0.2485 | – | 0.424 ± 0.0056
x1 = 0.2486 | 0.45 ± 0.006 | –
x1 = 0.298 | – | 0.48 ± 0.0063
x1 = 0.2981 | 0.507 ± 0.0066 | –
x1 = 0.3477 | – | 0.524 ± 0.0069
x1 = 0.3479 | 0.551 ± 0.0072 | –
x1 = 0.3974 | – | 0.559 ± 0.0073
x1 = 0.3976 | 0.589 ± 0.0076 | –
x1 = 0.4493 | 0.614 ± 0.0079 | 0.583 ± 0.0076
x1 = 0.4992 | 0.624 ± 0.0081 | 0.594 ± 0.0077
x1 = 0.5493 | 0.625 ± 0.0081 | 0.593 ± 0.0077
x1 = 0.5974 | – | 0.583 ± 0.0076
x1 = 0.5975 | 0.614 ± 0.0079 | –
x1 = 0.6476 | – | 0.559 ± 0.0073
x1 = 0.6478 | 0.589 ± 0.0076 | –
x1 = 0.6979 | – | 0.522 ± 0.0068
x1 = 0.6981 | 0.55 ± 0.0072 | –
x1 = 0.7483 | – | 0.472 ± 0.0062
x1 = 0.7485 | 0.495 ± 0.0065 | –
x1 = 0.7989 | – | 0.409 ± 0.0055
x1 = 0.799 | 0.429 ± 0.0057 | –
x1 = 0.8496 | 0.347 ± 0.0047 | 0.33 ± 0.0045
x1 = 0.9003 | 0.245 ± 0.0035 | 0.235 ± 0.0034
x1 = 0.9491 | 0.133 ± 0.0022 | 0.127 ± 0.0021
x1 = 1 | 0 ± 0.001 | 0 ± 0.001

CCOC(C)(C)C [2-ethoxy-2-methylpropane] + Cc1ccccc1
excess molar enthalpy [kJ/mol]
Conditions | 298.15 K | 313.15 K
x1 = 0.0248 | -0.0039 ± 0.0008 | –
x1 = 0.0491 | -0.0073 ± 0.0008 | –
x1 = 0.0499 | – | -0.00332 ± 0.0008
x1 = 0.0739 | -0.0109 ± 0.0009 | –
x1 = 0.0997 | – | -0.00541 ± 0.00082
x1 = 0.1003 | -0.0149 ± 0.0009 | –
x1 = 0.1498 | -0.0212 ± 0.0009 | –
x1 = 0.151 | – | -0.00928 ± 0.00085
x1 = 0.1991 | -0.0275 ± 0.001 | –
x1 = 0.2004 | – | -0.0125 ± 0.00087
x1 = 0.2489 | -0.0324 ± 0.001 | –
x1 = 0.2511 | – | -0.0169 ± 0.00091
x1 = 0.2993 | -0.0371 ± 0.0011 | –
x1 = 0.2998 | – | -0.02 ± 0.00093
x1 = 0.3499 | – | -0.0216 ± 0.00094
x1 = 0.3513 | -0.0405 ± 0.0011 | –
x1 = 0.3987 | -0.0433 ± 0.0011 | –
x1 = 0.4011 | – | -0.0247 ± 0.00097
x1 = 0.4495 | -0.045 ± 0.0011 | –
x1 = 0.45 | – | -0.0254 ± 0.00097
x1 = 0.5003 | – | -0.0272 ± 0.00099
x1 = 0.5019 | -0.046 ± 0.0011 | –
x1 = 0.5499 | – | -0.0265 ± 0.00098
x1 = 0.5515 | -0.0457 ± 0.0011 | –
x1 = 0.599 | -0.0452 ± 0.0011 | –
x1 = 0.6007 | – | -0.025 ± 0.00097
x1 = 0.6491 | -0.0425 ± 0.0011 | –
x1 = 0.6506 | – | -0.0245 ± 0.00097
x1 = 0.6996 | – | -0.0229 ± 0.00095
x1 = 0.7014 | -0.0396 ± 0.0011 | –
x1 = 0.7495 | -0.0348 ± 0.001 | –
x1 = 0.7498 | – | -0.0206 ± 0.00093
x1 = 0.801 | -0.0293 ± 0.001 | –
x1 = 0.8013 | – | -0.0172 ± 0.00091
x1 = 0.8492 | – | -0.0143 ± 0.00089
x1 = 0.8514 | -0.0222 ± 0.0009 | –
x1 = 0.9006 | -0.0151 ± 0.0009 | –
x1 = 0.9008 | – | -0.01 ± 0.00085
x1 = 0.951 | -0.0072 ± 0.0008 | –
x1 = 0.9511 | – | -0.00601 ± 0.00082
x1 = 1 | 0 ± 0.001 | 0 ± 0.001

Cc1ccccc1 [toluene] + CCOC(C)(C)C
x2 = 0
Conditions | excess molar enthalpy [kJ/mol]
298.15 K | 0 ± 0.001
313.15 K | 0 ± 0.001

COC(C)(C)C [2-methoxy-2-methylpropane] + CCCCCC
298.15 K
Conditions | excess molar enthalpy [kJ/mol]
x1 = 0.0504 | 0.0718 ± 0.0015
x1 = 0.1002 | 0.133 ± 0.0022
x1 = 0.1497 | 0.188 ± 0.0028
x1 = 0.2008 | 0.237 ± 0.0034
x1 = 0.2491 | 0.275 ± 0.0039
x1 = 0.2994 | 0.309 ± 0.0043
x1 = 0.3486 | 0.337 ± 0.0046
x1 = 0.4002 | 0.358 ± 0.0049
x1 = 0.4484 | 0.369 ± 0.005
x1 = 0.4997 | 0.374 ± 0.005
x1 = 0.5493 | 0.37 ± 0.005
x1 = 0.6006 | 0.359 ± 0.0049
x1 = 0.6496 | 0.341 ± 0.0046
x1 = 0.7001 | 0.313 ± 0.0043
x1 = 0.75 | 0.281 ± 0.0039
x1 = 0.7992 | 0.238 ± 0.0034
x1 = 0.8501 | 0.189 ± 0.0028
x1 = 0.9007 | 0.132 ± 0.0022
x1 = 0.9506 | 0.0706 ± 0.0015
x1 = 1 | 0 ± 0.0011

Cc1ccccc1 [toluene] + CCCCCCC
excess molar enthalpy [kJ/mol]
Conditions | 298.15 K | 313.15 K
x2 = 0 | 0 ± 0.001 | 0 ± 0.001
x2 = 0.0502 | 0.123 ± 0.0021 | 0.119 ± 0.002
x2 = 0.1008 | 0.231 ± 0.0033 | 0.222 ± 0.0032
x2 = 0.1501 | 0.318 ± 0.0044 | 0.306 ± 0.0042
x2 = 0.1995 | 0.393 ± 0.0053 | 0.376 ± 0.0051
x2 = 0.2507 | – | 0.434 ± 0.0058
x2 = 0.2508 | 0.452 ± 0.006 | –
x2 = 0.3002 | 0.497 ± 0.0065 | 0.477 ± 0.0063
x2 = 0.3495 | 0.531 ± 0.0069 | –
x2 = 0.3496 | – | 0.508 ± 0.0067
x2 = 0.4005 | 0.55 ± 0.0072 | –
x2 = 0.4006 | – | 0.529 ± 0.0069
x2 = 0.4494 | 0.56 ± 0.0073 | –
x2 = 0.4497 | – | 0.538 ± 0.007
x2 = 0.4999 | 0.556 ± 0.0072 | 0.535 ± 0.007
x2 = 0.55 | 0.545 ± 0.0071 | 0.521 ± 0.0068
x2 = 0.5995 | 0.521 ± 0.0068 | 0.499 ± 0.0065
x2 = 0.6505 | 0.485 ± 0.0064 | –
x2 = 0.6506 | – | 0.466 ± 0.0061
x2 = 0.7009 | 0.444 ± 0.0059 | 0.426 ± 0.0057
x2 = 0.7504 | 0.391 ± 0.0052 | –
x2 = 0.7505 | – | 0.376 ± 0.0051
x2 = 0.799 | 0.333 ± 0.0045 | 0.319 ± 0.0044
x2 = 0.849 | 0.264 ± 0.0037 | 0.251 ± 0.0035
x2 = 0.9005 | 0.18 ± 0.0027 | 0.174 ± 0.0026
x2 = 0.9509 | 0.0923 ± 0.0017 | 0.0887 ± 0.0016
